The values that follow come from paper PMC6201305 (Journal of medicinal chemistry, 2010).

Where “and” joins values, the source holds several entries; their conditions need not be identical. Equal entries are not always repeated.

For experiment [1], the target named is T1, wild type GPR17 (Homo sapiens, UniProt Q13304). The experiment is described as follows: FAC-MS screening on GPR17-IAM-II column. Type of experiment: binding. The conditions noted are these: Library A; for breakthrough time GPR17-IAM-II (Table 5): 1 µM each; for breakthrough time GPR17-IAM-II (Table 5) / t (min), breakthrough time: column GPR17-IAM-II (19.5 million cells); for t/tC × 100: column GPR17-IAM-II; for t (min), breakthrough time: single ranking experiment.

For experiment [2], the target named is T1, wild type GPR17. The note with it: cited from earlier work.
Experiment [3] concerns the target R255I mutated GPR17 receptor (Homo sapiens, UniProt Q13304, R283I). The experiment in a line: [35S]GTPγS binding functional assay, 1321N1 cells expressing mutated GPR17. The experiment is classed as biochemical. The note with it: [35S]GTPγS EC50/IC50, P < 0.05 for antagonists. (In general: GTPγS is a poorly hydrolysed GTP analogue; its binding reports G protein activation.)

Experiment [4] concerns the target T1, wild type GPR17. The experiment is described as follows: FAC-MS screening on GPR17-IAM-I column. The experiment is classed as binding. The conditions noted are these: for t/tc × 100, percentage of breakthrough time with respect to cangrelor / t (min), breakthrough time of the ligand with the immobilized GPR17 / binding class from FAC-MS breakthrough: column GPR17-IAM-I; for t (min), breakthrough time of the ligand with the immobilized GPR17: each 1 µM, single ranking experiment; for binding class from FAC-MS breakthrough: relative to cangrelor, MRS 2179 and UDP.

The target in experiment [5] is mutated GPR17 receptor (Arg255Ile) (Homo sapiens, UniProt Q13304, R283I). The experiment in a line: FAC-MS screening on mutated GPR17-IAM column. Type of experiment: binding. The note with it: Library A, mutated GPR17-IAM column (19.5 million cells); for breakthrough time Mutated GPR17-IAM (Table 5): 1 µM each.
The test system of a further experiment is P2Y receptors. The conditions noted are these: as listed in Table 1; cited from earlier work.
The target in experiment [6] is T1, wild type GPR17. The experiment is described as follows: [35S]GTPγS binding functional assay, 1321N1 cells expressing wild-type GPR17. The experiment is classed as biochemical.

R255I mutated GPR17 receptor, sequence (Q13304 29-367 R283I): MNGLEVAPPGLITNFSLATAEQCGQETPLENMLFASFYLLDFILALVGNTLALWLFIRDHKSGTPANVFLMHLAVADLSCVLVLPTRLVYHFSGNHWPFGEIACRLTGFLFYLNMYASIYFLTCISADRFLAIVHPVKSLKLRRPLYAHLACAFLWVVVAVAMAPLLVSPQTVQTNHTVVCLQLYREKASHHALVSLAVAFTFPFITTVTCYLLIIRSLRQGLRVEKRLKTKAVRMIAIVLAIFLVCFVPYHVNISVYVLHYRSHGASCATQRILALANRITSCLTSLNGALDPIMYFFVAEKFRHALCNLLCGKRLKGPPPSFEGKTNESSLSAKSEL
mutated GPR17 receptor (Arg255Ile), sequence (Q13304 29-367 R283I): as above
T1 sequence (Q13304 29-367): as the sequence (Q13304 29-367 R283I) above, with I255R counted along it

In the case of `CSCCNc1nc(SCCC(F)(F)F)nc2c1ncn2[C@@H]1O[C@H](COP(=O)([O-])OP(=O)([O-])C(Cl)(Cl)P(=O)([O-])[O-])[C@@H](O)[C@H]1O.[Na+].[Na+].[Na+].[Na+]` [Cangrelor, cangrelor, reference compound], on wild type GPR17 [1], the “breakthrough time GPR17-IAM-II (Table 5)” value is recorded as 10.60; the “t/tC × 100” value is 100.00%; the “t (min), breakthrough time” value was 10.60 min and 10.6 min. At wild type GPR17 [2], the “profile at GPR17” value is given as “antagonists”. Moreover, the “change in affinity toward mutated vs wild type receptor” value (from here on “change in affinity toward mutated”) in experiment [3] is listed as “significant increase in affinity”. On wild type GPR17 [4] (Library A mixture), the “t/tc × 100, percentage of breakthrough time with respect to cangrelor” value (“t/tc × 100, percentage” below) was found to be 100.00%. Besides, on wild type GPR17 [4] (Library B mixture), the “t/tc × 100, percentage” value was 100.00% and the “t (min), breakthrough time of the ligand with the immobilized GPR17” value (“t (min), breakthrough time of the ligand” below) is 12.20 min. Further, in experiment [5], the “breakthrough time Mutated GPR17-IAM (Table 5)” value was 13.16 and the “t (min), breakthrough time” value worked out at 13.16 min.
As to `O=c1ccn([C@@H]2O[C@H](COP(=O)([O-])OP(=O)([O-])[O-])[C@@H](O)[C@H]2O)c(=O)[nH]1.[Na+].[Na+].[Na+]` [UDP, uridine diphosphate], the pharmacology entry in the experiment on P2Y receptors is “P2Y agonist”. At wild type GPR17 [1], the “breakthrough time GPR17-IAM-II (Table 5)” value is 2.69; the “t/tC × 100” value was determined as 25.38%; the “t (min), breakthrough time” value was found to be 2.69 min. Besides, at wild type GPR17 [2], the “profile at GPR17” value was “agonist”. Moreover, the “change in affinity toward mutated” value in experiment [3] is listed as “a trend toward a reduced affinity”. Also, the “t/tc × 100, percentage” value on wild type GPR17 [4] (Library A mixture) was 13% and 13.03%. Besides, at wild type GPR17 [4] (Library B mixture), the “t/tc × 100, percentage” value is 12% and 12.30%; the “t (min), breakthrough time of the ligand” value was determined as 1.50 min. For the same compound, in experiment [5], the “breakthrough time Mutated GPR17-IAM (Table 5)” value came out at 2.15 and the “t (min), breakthrough time” value was found to be 2.15 min.
In the case of `CNc1nc(Cl)cc2c1ncn2[C@@H]1O[C@H](COP(=O)(O)OP(=O)(O)OP(=O)(O)O)[C@@H](O)[C@H]1O.N.N.N.N` [Compound 8, 2.-choro-3-deaza-N^6-- methyladenosine Triphospate], at wild type GPR17 [1], the “breakthrough time GPR17-IAM-II (Table 5)” value is reported as 4.77; the “t/tC × 100” value amounted to 45.00%; the “t (min), breakthrough time” value is 4.77 min. Further, on wild type GPR17 [4] (Library A mixture), the “t/tc × 100, percentage” value was 45.05%. Moreover, at wild type GPR17 [6] (wild-type GPR17), the “pharmacological profile (agonist/antagonist) in [35S]GTPγS binding” value was “agonist profile”. Besides, the “increase of activity on replacement of 3-nitrogen by CH (8 versus 7)” value on wild type GPR17 [6] (wild-type GPR17, EC50 comparison) is 7 fold. Also, in experiment [5], the “breakthrough time Mutated GPR17-IAM (Table 5)” value is recorded as 5.79.
In the case of `N.N.N.N.O=P(O)(O)OP(=O)(O)OP(=O)(O)OC[C@H]1O[C@@H](n2cnc3c(NC4CCCC4)ncnc32)[C@H](O)[C@@H]1O` [Compound 6], on wild type GPR17 [1], the “breakthrough time GPR17-IAM-II (Table 5)” value is on record as 5.67; the “t/tC × 100” value is reported as 53.49%; the “t (min), breakthrough time” value was found to be 5.67 min. The “t/tc × 100, percentage” value on wild type GPR17 [4] (Library A mixture) is on record as 49.90%. Further, on wild type GPR17 [6] (wild-type GPR17), the “pharmacological profile (agonist/antagonist) in [35S]GTPγS binding” value is “agonist profile”. Also, the “breakthrough time Mutated GPR17-IAM (Table 5)” value in experiment [5] stood at 7.08.
`CNc1nc(Cl)nc2c1ncn2[C@@H]1O[C@H](COP(=O)(O)OP(=O)(O)OP(=O)(O)O)[C@@H](O)[C@H]1O.N.N.N.N` [Compound 7, 2.-choro-N^6 - methyladenosine Triphospate]: at wild type GPR17 [1], the “breakthrough time GPR17-IAM-II (Table 5)” value came to 4.50; the “t/tC × 100” value came to 42.45%; the “t (min), breakthrough time” value was 4.50 min and 4.5 min. Also, the “t/tc × 100, percentage” value on wild type GPR17 [4] (Library A mixture) is on record as 37.56%. For the same compound, on wild type GPR17 [6] (wild-type GPR17), the “pharmacological profile (agonist/antagonist) in [35S]GTPγS binding” value is on record as “agonist profile”. The “breakthrough time Mutated GPR17-IAM (Table 5)” value in experiment [5] was 5.27.
As to `N.N.N.O=c1[nH]c(=O)n([C@@H]2O[C@H](COP(=O)(O)OP(=O)(O)O)[C@@H](O)[C@H]2O)cc1I` [Compound 13], on wild type GPR17 [1], the “breakthrough time GPR17-IAM-II (Table 5)” value was 2.79; the “t/tC × 100” value is 26.32%; the “t (min), breakthrough time” value amounted to 2.79 min. In addition, the “change in affinity toward mutated” value in experiment [3] is “a trend toward a reduced affinity”. Moreover, the “t/tc × 100, percentage” value at wild type GPR17 [4] (Library A mixture) is 16.54%. Also, the “binding class from FAC-MS breakthrough” value on wild type GPR17 [4] was “weak binders”. For the same compound, the “pharmacological profile (agonist/antagonist) in [35S]GTPγS binding” value at wild type GPR17 [6] (wild-type GPR17) is “agonist profile”. Moreover, in experiment [5], the “breakthrough time Mutated GPR17-IAM (Table 5)” value is reported as 2.51 and the “t (min), breakthrough time” value is 2.51 min.
As to `CCCCC#Cc1cn([C@@H]2O[C@H](COP(=O)(O)OP(=O)(O)O)[C@@H](O)[C@H]2O)c(=O)[nH]c1=O` [Compound 14, 5-Hexynyluridine Diphosphate], at wild type GPR17 [1], the “breakthrough time GPR17-IAM-II (Table 5)” value is reported as 2.97; the “t/tC × 100” value turned out to be 28.02%; the “t (min), breakthrough time” value amounted to 2.97 min. In addition, at wild type GPR17 [4] (Library A mixture), the “t/tc × 100, percentage” value is on record as 19.67%. Also, the “binding class from FAC-MS breakthrough” value at wild type GPR17 [4] is “weak binders”. For the same compound, in experiment [5], the “breakthrough time Mutated GPR17-IAM (Table 5)” value came out at 2.90.
On to `N.N.Nc1nc(Cl)nc2c1ncn2[C@H]1C[C@H](OP(=O)(O)O)[C@@H](COP(=O)(O)O)O1` [Compound 12], for which, on wild type GPR17 [1], the “breakthrough time GPR17-IAM-II (Table 5)” value amounted to 3.55; the “t/tC × 100” value is given as 33.49%; the “t (min), breakthrough time” value stood at 3.55 min. On wild type GPR17 [4] (Library A mixture), the “t/tc × 100, percentage” value is recorded as 25.99%. Besides, on wild type GPR17 [6] (wild-type GPR17), the “increase in [35S]GTPγS binding by compound alone” value was “did not induce any significant increase” and the “pharmacological profile (agonist/antagonist) in [35S]GTPγS binding” value was “antagonist profile”. For the same compound, in experiment [5], the “breakthrough time Mutated GPR17-IAM (Table 5)” value is reported as 3.54.
Take `N.N.N.N.Nc1nc(C#Cc2ccccc2)nc2c1ncn2[C@@H]1O[C@H](COP(=O)(O)OP(=O)(O)OP(=O)(O)O)[C@@H](O)[C@H]1O` [Compound 4]: in the experiment with P2Y receptors, the pharmacology entry is recorded as “P2Y1,12antogonist”. At wild type GPR17 [1], the “breakthrough time GPR17-IAM-II (Table 5)” value is listed as 13.07; the “t/tC × 100” value was found to be 123.30%; the “t (min), breakthrough time” value worked out at 13.07 min. The “change in affinity toward mutated” value in experiment [3] is “a trend toward an increased affinity”. Further, the “t/tc × 100, percentage” value at wild type GPR17 [4] (Library A mixture) came to 120.37%. Besides, the “binding class from FAC-MS breakthrough” value on wild type GPR17 [4] was “high binding candidates”. Besides, the “Kd value hypothesized from the chromatographic data” value on wild type GPR17 [4] (elutes after cangrelor) was “subnanomolar”. For the same compound, the “pharmacological profile (agonist/antagonist) in [35S]GTPγS binding” value at wild type GPR17 [6] (wild-type GPR17) is reported as “agonist profile”. In addition, in experiment [5], the “breakthrough time Mutated GPR17-IAM (Table 5)” value is given as 16.07 and the “t (min), breakthrough time” value turned out to be 16.07 min.
Consider `CNc1ncnc2c1ncn2[C@H]1C[C@H](OP(=O)(O)O)[C@@H](COP(=O)(O)O)O1.N.N` [MRS2179, MRS 2179], for which the pharmacology entry with P2Y receptors was “P2Y1 competitive Antagonist”. In addition, on wild type GPR17 [1], the “breakthrough time GPR17-IAM-II (Table 5)” value stood at 3.62; the “t/tC × 100” value came to 34.15%; the “t (min), breakthrough time” value amounted to 3.62 min. At wild type GPR17 [2], the “profile at GPR17” value was “antagonists”. In experiment [3], the “change in affinity toward mutated” value was “significant increase in affinity”. For the same compound, the “t/tc × 100, percentage” value on wild type GPR17 [4] (Library A mixture) is 28.92%. Further, the “t/tc × 100, percentage” value at wild type GPR17 [4] (Library A mixture, listed as MRS 2179) stood at 29%. Also, on wild type GPR17 [4] (Library B mixture), the “t/tc × 100, percentage” value is 28% and 27.87%; the “t (min), breakthrough time of the ligand” value is listed as 3.40 min. Further, in experiment [5], the “breakthrough time Mutated GPR17-IAM (Table 5)” value amounted to 3.47 and the “t (min), breakthrough time” value was 3.47 min.
On to `CNc1ncnc2c1ncn2[C@@H]1O[C@H](COP(=O)(O)OP(=O)(O)OP(=O)(O)O)[C@@H](O)[C@H]1O.N.N.N.N` [Compound 5], for which, on wild type GPR17 [1], the “breakthrough time GPR17-IAM-II (Table 5)” value is on record as 3.69; the “t/tC × 100” value was 34.81%; the “t (min), breakthrough time” value is on record as 3.69 min. Moreover, the “breakthrough time Mutated GPR17-IAM (Table 5)” value in experiment [5] was found to be 4.08.
